Assay results from patent publication US20230406885A1, “CYCLIC PEPTIDES FOR TRAPPING INTERLEUKIN-1 BETA” (MERCK SHARP & DOHME LLC, priority 2022, published 2023).
*1 amine or outer side, *2 acyl side, *3 side chain or, on linkers, in order; H or OH if unused. Where a SMILES comes first, the peptide text is derived from it. [ ]: non-standard residue; d: D form. Trp(βS-Me,4-F) = C[C@@H](c1c[nH]c2cccc(F)c12)[C@H](N)C(=O)O; Bip(4'-COOH) = N[C@@H](Cc1ccc(-c2ccc(C(=O)O)cc2)cc1)C(=O)O; Phe(3-CH2NH2) = O=C([C@H](Cc1cccc(CN[*:3])c1)N[*:1])[*:2]; 1Nal(3S-Me) = C[C@@H](c1cccc2ccccc12)[C@H](N)C(=O)O; X11 = O=C([C@@H]1C[C@@H](NCc2ccccc2)CN1[*:1])[*:2]; X5 = O=C([C@@H]1C[C@@H](NCCc2ccccc2)CN1[*:1])[*:2]; Phe(3-allyloxy) = C=CCOc1cccc(C[C@H](N)C(=O)O)c1; Phe(3-Ph) = N[C@@H](Cc1cccc(-c2ccccc2)c1)C(=O)O; Phe(4-COOH) = N[C@@H](Cc1ccc(C(=O)O)cc1)C(=O)O; X4 = CCN[C@@H]1C[C@@H](C(=O)[*:2])N([*:1])C1; Pro(4R-NH2) = N[C@H]1CN[C@H](C(=O)O)C1; hTyr = N[C@@H](CCc1ccc(O)cc1)C(=O)O; dDab = NCC[C@@H](N)C(=O)O; dNMeA = CN[C@H](C)C(=O)O; Nva = CCC[C@H](N)C(=O)O; Dap = NC[C@H](N)C(=O)O

What follows are compounds tested against T1, Recombinant human IL-1β (Homo sapiens, UniProt P01584) (assay: IL-6 assay in MRC5 cells: inhibition of IL-1β induced IL-6 secretion (AlphaLISA)). Details: inhibition of IL-1β induced IL-6 secretion in MRC5 cells; IL-1β pre-incubated 1 hour with compound; read-out: MRC5 IC50.
T1 construct: purchased BioLegend 579404
T1 sequence (P01584 117-269): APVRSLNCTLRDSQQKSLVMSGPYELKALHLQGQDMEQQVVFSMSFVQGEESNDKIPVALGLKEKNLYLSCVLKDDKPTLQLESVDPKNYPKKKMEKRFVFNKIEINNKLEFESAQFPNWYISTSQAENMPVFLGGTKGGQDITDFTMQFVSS
Type: cell-based
Summary of the method: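 IL-1β at 2×EC80 in seeding medium (EMEM, 0.025% BSA) preincubated 1 h at ambient temperature with compound, then 3000 MRC5 cells/well added and incubated overnight at 37 °C, 5% CO2. IL-6 in conditioned medium quantified by AlphaLISA; IC50 from 4-parameter logistic fit.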

| Compound | IC50 |
| --- | --- |
| C[C@@H]1C(=O)NCC(=O)N[C@@H](Cc2ccc(-c3ccc(C(=O)O)cc3)cc2)C(=O)N[C@@H](CCCCN)C(=O)N[C@@H](CO)C(=O)N[C@H](C)C(=O)N[C@@H](CCc2ccc(O)cc2)C(=O)N[C@@H](Cc2ccc(-c3ccc(C(=O)O)cc3)cc2)C(=O)N[C@@H](Cc2c[nH]c3ccccc23)C(=O)N[C@@H](Cc2ccc(C(=O)O)cc2)C(=O)NCC(=O)N2C[C@H](N)C[C@H]2C(=O)N[C@@H]([C@@H](C)c2c[nH]c3cccc(F)c23)C(=O)N[C@@H](CC(=O)O)C(=O)N1C [Example 72] (cyclo([Bip(4'-COOH)]W[Phe(4-COOH)]G[Pro(4R-NH2)][Trp(βS-Me,4-F)]D[dNMeA]G[Bip(4'-COOH)]KS[dA][hTyr])) | 0.107 nM |
| CC(C)C[C@@H]1NC(=O)[C@H](Cc2cccc(CN)c2)NC(=O)[C@H](Cc2ccc(-c3ccc(C(=O)O)cc3)cc2)NC(=O)CNC(=O)[C@@H](C)N(C)C(=O)[C@H](CC(=O)O)NC(=O)[C@H]([C@@H](C)c2c[nH]c3cccc(F)c23)NC(=O)[C@@H]2C[C@@H](N)CN2C(=O)CNC(=O)[C@H](Cc2ccc(C(=O)O)cc2)NC(=O)[C@H](Cc2c[nH]c3ccccc23)NC(=O)[C@H](Cc2ccc(-c3ccc(C(=O)O)cc3)cc2)NC(=O)[C@H](CCc2ccc(O)cc2)NC(=O)[C@@H](C)NC1=O [Example 73] (cyclo([Bip(4'-COOH)]W[Phe(4-COOH)]G[Pro(4R-NH2)][Trp(βS-Me,4-F)]D[dNMeA]G[Bip(4'-COOH)][Phe(3-CH2NH2)]L[dA][hTyr])) | 0.0509 nM |
| C[C@@H]1C(=O)NCC(=O)N[C@@H](Cc2ccc(-c3ccc(C(=O)O)cc3)cc2)C(=O)N[C@@H](Cc2cccc(CN)c2)C(=O)N[C@@H](CO)C(=O)N[C@H](C)C(=O)N[C@@H](CCc2ccc(O)cc2)C(=O)N[C@@H](Cc2ccc(-c3ccc(C(=O)O)cc3)cc2)C(=O)N[C@@H](Cc2c[nH]c3ccccc23)C(=O)N[C@@H](Cc2ccc(C(=O)O)cc2)C(=O)NCC(=O)N2C[C@H](N)C[C@H]2C(=O)N[C@@H]([C@@H](C)c2c[nH]c3cccc(F)c23)C(=O)N[C@@H](CC(=O)O)C(=O)N1C [Example 74] (cyclo([Bip(4'-COOH)]W[Phe(4-COOH)]G[Pro(4R-NH2)][Trp(βS-Me,4-F)]D[dNMeA]G[Bip(4'-COOH)][Phe(3-CH2NH2)]S[dA][hTyr])) | 0.296 nM |
| CC(C)C[C@@H]1NC(=O)[C@H](Cc2cccc(-c3ccccc3)c2)NC(=O)[C@H](Cc2ccc(-c3ccc(C(=O)O)cc3)cc2)NC(=O)CNC(=O)[C@@H](C)N(C)C(=O)[C@H](CC(=O)O)NC(=O)[C@H]([C@@H](C)c2c[nH]c3cccc(F)c23)NC(=O)[C@@H]2C[C@@H](N)CN2C(=O)CNC(=O)[C@H](Cc2ccc(C(=O)O)cc2)NC(=O)[C@H](Cc2c[nH]c3ccccc23)NC(=O)[C@H](Cc2ccc(-c3ccc(C(=O)O)cc3)cc2)NC(=O)[C@H](CCc2ccc(O)cc2)NC(=O)[C@@H](C)NC1=O [Example 75] (cyclo([Bip(4'-COOH)]W[Phe(4-COOH)]G[Pro(4R-NH2)][Trp(βS-Me,4-F)]D[dNMeA]G[Bip(4'-COOH)][Phe(3-Ph)]L[dA][hTyr])) | 0.165 nM |
| C=CCOc1cccc(C[C@@H]2NC(=O)[C@H](Cc3ccc(-c4ccc(C(=O)O)cc4)cc3)NC(=O)CNC(=O)[C@@H](C)N(C)C(=O)[C@H](CC(=O)O)NC(=O)[C@H]([C@@H](C)c3c[nH]c4cccc(F)c34)NC(=O)[C@@H]3C[C@@H](N)CN3C(=O)CNC(=O)[C@H](Cc3ccc(C(=O)O)cc3)NC(=O)[C@H](Cc3c[nH]c4ccccc34)NC(=O)[C@H](Cc3ccc(-c4ccc(C(=O)O)cc4)cc3)NC(=O)[C@H](CCc3ccc(O)cc3)NC(=O)[C@@H](C)NC(=O)[C@H](CC(C)C)NC2=O)c1 [Example 76] (cyclo([Bip(4'-COOH)]W[Phe(4-COOH)]G[Pro(4R-NH2)][Trp(βS-Me,4-F)]D[dNMeA]G[Bip(4'-COOH)][Phe(3-allyloxy)]L[dA][hTyr])) | 0.122 nM |
| C[C@@H]1C(=O)NCC(=O)N[C@@H](Cc2ccc(-c3ccc(C(=O)O)cc3)cc2)C(=O)N[C@@H](Cc2c[nH]c3ccccc23)C(=O)NCC(=O)N[C@H](CCN)C(=O)N[C@@H](CCc2ccc(O)cc2)C(=O)N[C@@H](Cc2ccc(-c3ccc(C(=O)O)cc3)cc2)C(=O)N[C@@H](Cc2c[nH]c3ccccc23)C(=O)N[C@@H](Cc2ccc(C(=O)O)cc2)C(=O)NCC(=O)N2C[C@H](N)C[C@H]2C(=O)N[C@@H]([C@@H](C)c2c[nH]c3cccc(F)c23)C(=O)N[C@@H](CC(=O)O)C(=O)N1C [Example 77] (cyclo([Bip(4'-COOH)]W[Phe(4-COOH)]G[Pro(4R-NH2)][Trp(βS-Me,4-F)]D[dNMeA]G[Bip(4'-COOH)]WG[dDab][hTyr])) | 0.0601 nM |
| CC(C)C[C@@H]1NC(=O)[C@H](Cc2c[nH]c3ccccc23)NC(=O)[C@H](Cc2ccc(-c3ccc(C(=O)O)cc3)cc2)NC(=O)CNC(=O)[C@@H](C)N(C)C(=O)[C@H](CC(=O)O)NC(=O)[C@H]([C@@H](C)c2c[nH]c3cccc(F)c23)NC(=O)[C@@H]2C[C@@H](N)CN2C(=O)CNC(=O)[C@H](Cc2ccc(C(=O)O)cc2)NC(=O)[C@H](Cc2c[nH]c3ccccc23)NC(=O)[C@H](Cc2ccc(-c3ccc(C(=O)O)cc3)cc2)NC(=O)[C@H](CCc2ccc(O)cc2)NC(=O)[C@@H](C)NC1=O [Example 78] (cyclo([Bip(4'-COOH)]W[Phe(4-COOH)]G[Pro(4R-NH2)][Trp(βS-Me,4-F)]D[dNMeA]G[Bip(4'-COOH)]WL[dA][hTyr])) | 0.0732 nM |
| CCC[C@@H]1NC(=O)[C@H](Cc2c[nH]c3ccccc23)NC(=O)[C@H](Cc2ccc(-c3ccc(C(=O)O)cc3)cc2)NC(=O)CNC(=O)[C@@H](C)N(C)C(=O)[C@H](CC(=O)O)NC(=O)[C@H]([C@@H](C)c2c[nH]c3cccc(F)c23)NC(=O)[C@@H]2C[C@@H](N)CN2C(=O)CNC(=O)[C@H](Cc2ccc(C(=O)O)cc2)NC(=O)[C@H](Cc2c[nH]c3ccccc23)NC(=O)[C@H](Cc2ccc(-c3ccc(C(=O)O)cc3)cc2)NC(=O)[C@H](C)NC(=O)[C@@H](C)NC1=O [Example 79] (cyclo([Bip(4'-COOH)]W[Phe(4-COOH)]G[Pro(4R-NH2)][Trp(βS-Me,4-F)]D[dNMeA]G[Bip(4'-COOH)]W[Nva][dA]A)) | 0.189 nM |
| CC(C)C[C@@H]1NC(=O)[C@H](CCCCN)NC(=O)[C@H](Cc2ccc(-c3ccc(C(=O)O)cc3)cc2)NC(=O)CNC(=O)[C@@H](C)N(C)C(=O)[C@H](CC(N)=O)NC(=O)[C@H]([C@@H](C)c2c[nH]c3cccc(F)c23)NC(=O)[C@@H]2C[C@@H](N)CN2C(=O)CNC(=O)[C@H](Cc2ccc(C(=O)O)cc2)NC(=O)[C@H](Cc2c[nH]c3ccccc23)NC(=O)[C@H](Cc2ccc(-c3ccc(C(=O)O)cc3)cc2)NC(=O)[C@H](CCc2ccc(O)cc2)NC(=O)[C@@H](C)NC1=O [Example 80] (cyclo([Bip(4'-COOH)]W[Phe(4-COOH)]G[Pro(4R-NH2)][Trp(βS-Me,4-F)]N[dNMeA]G[Bip(4'-COOH)]KL[dA][hTyr])) | 0.291 nM |
| CC(C)C[C@@H]1NC(=O)[C@H](CCCCN)NC(=O)[C@H](Cc2ccc(-c3ccc(C(=O)O)cc3)cc2)NC(=O)CNC(=O)[C@@H](C)N(C)C(=O)[C@H](CC(N)=O)NC(=O)[C@H]([C@@H](C)c2c[nH]c3cccc(F)c23)NC(=O)[C@@H]2C[C@@H](N)CN2C(=O)CNC(=O)[C@H](Cc2ccc(C(=O)O)cc2)NC(=O)[C@H](Cc2c[nH]c3ccccc23)NC(=O)[C@H](Cc2ccc(-c3ccc(C(=O)O)cc3)cc2)NC(=O)[C@H](CCc2ccc(O)cc2)NC(=O)[C@@H](CCN)NC1=O [Example 81] (cyclo([Bip(4'-COOH)]W[Phe(4-COOH)]G[Pro(4R-NH2)][Trp(βS-Me,4-F)]N[dNMeA]G[Bip(4'-COOH)]KL[dDab][hTyr])) | 0.255 nM |
| C[C@@H]1C(=O)NCC(=O)N[C@@H](Cc2ccc(-c3ccc(C(=O)O)cc3)cc2)C(=O)N[C@@H](Cc2c[nH]c3ccccc23)C(=O)N[C@@H](CN)C(=O)N[C@H](C)C(=O)N[C@@H](CCc2ccc(O)cc2)C(=O)N[C@@H](Cc2ccc(-c3ccc(C(=O)O)cc3)cc2)C(=O)N[C@@H](Cc2c[nH]c3ccccc23)C(=O)N[C@@H](Cc2ccc(C(=O)O)cc2)C(=O)NCC(=O)N2C[C@H](NCc3ccccc3)C[C@H]2C(=O)N[C@@H]([C@@H](C)c2cccc3ccccc23)C(=O)N[C@@H](CC(=O)O)C(=O)N1C [Example 82] (cyclo([Bip(4'-COOH)]W[Phe(4-COOH)]G[X11][1Nal(3S-Me)]D[dNMeA]G[Bip(4'-COOH)]W[Dap][dA][hTyr])) | 0.0157 nM |
| C[C@@H]1C(=O)NCC(=O)N[C@@H](Cc2ccc(-c3ccc(C(=O)O)cc3)cc2)C(=O)N[C@@H](Cc2c[nH]c3ccccc23)C(=O)N[C@@H](CN)C(=O)N[C@H](C)C(=O)N[C@@H](CCc2ccc(O)cc2)C(=O)N[C@@H](Cc2ccc(-c3ccc(C(=O)O)cc3)cc2)C(=O)N[C@@H](Cc2c[nH]c3ccccc23)C(=O)N[C@@H](Cc2ccc(C(=O)O)cc2)C(=O)NCC(=O)N2C[C@H](NCCc3ccccc3)C[C@H]2C(=O)N[C@@H]([C@@H](C)c2cccc3ccccc23)C(=O)N[C@@H](CC(=O)O)C(=O)N1C [Example 83] (cyclo([Bip(4'-COOH)]W[Phe(4-COOH)]G[X5][1Nal(3S-Me)]D[dNMeA]G[Bip(4'-COOH)]W[Dap][dA][hTyr])) | 0.0329 nM |
| CCN[C@@H]1C[C@H]2C(=O)N[C@@H]([C@@H](C)c3cccc4ccccc34)C(=O)N[C@@H](CC(=O)O)C(=O)N(C)[C@H](C)C(=O)NCC(=O)N[C@@H](Cc3ccc(-c4ccc(C(=O)O)cc4)cc3)C(=O)N[C@@H](Cc3c[nH]c4ccccc34)C(=O)N[C@@H](CN)C(=O)N[C@H](C)C(=O)N[C@@H](CCc3ccc(O)cc3)C(=O)N[C@@H](Cc3ccc(-c4ccc(C(=O)O)cc4)cc3)C(=O)N[C@@H](Cc3c[nH]c4ccccc34)C(=O)N[C@@H](Cc3ccc(C(=O)O)cc3)C(=O)NCC(=O)N2C1 [Example 84] (cyclo([Bip(4'-COOH)]W[Phe(4-COOH)]G[X4][1Nal(3S-Me)]D[dNMeA]G[Bip(4'-COOH)]W[Dap][dA][hTyr])) | 0.0258 nM |
